Source: US4616087A, “2,5-bis alkyl sulfonyl and 2,5-bis alkyl thio substituted-pyridines” (The Dow Chemical Company, priority 1982, dated 1986)

Test system: rhinovirus type 1A (RV-1A), rhinovirus type 2 (RV-2) or Coxsackie A21 virus (Cox A21)
Test: Tissue Culture testing, antiviral activity (virus not specified)
Format: cell-based
Conditions: HeLa cells; qualitative
Procedure: Monolayered HeLa cells in 16 millimeter (mm) tissue culture dishes were treated with 1 ml of culture medium (Eagles medium supplemented with fetal calf serum) containing subject compound at an appropriate concentration or containing no compound at all. Culture media such as those described herein are more fully described in standard texts, as for example, Kuchler's Biochemical Methods in Cell Culture and Virology, Dowden, Hutchinson and Ross, Inc., Stroudsberg, PA (1977). Following treatment, cells were challenged with 0.05 ml of rhinovirus type 1A (RV-1A), rhinovirus type 2 (RV-2) or Coxsackie A21 virus (Cox A21) in culture medium. Some of the compounds were also tested against rhinovirus type 5 (RV-5), rhinovirus type 8 (RV-8) or rhinovirus type 64 (RV-64). Cell controls received no viruses.

Structure (SMILES) | antiviral activity in the Tissue Culture testing
CS(=O)(=O)c1ccc(Oc2cccc(C#N)c2)nc1 [3-((5-(methylsulfonyl)-2-pyridinyl)oxy)benzonitrile] | exhibiting antiviral activity
CS(=O)(=O)c1ccc(Oc2ccc(Br)cc2)nc1 [2-(4-bromophenoxy)-5-(methylsulfonyl)pyridine] | exhibiting antiviral activity
CCS(=O)(=O)c1cccnc1Oc1ccc(Cl)c(Cl)c1 [2-(3,4-dichlorophenoxy)-3-(ethylsulfonyl)pyridine] | exhibiting antiviral activity
O=S(=O)(c1ccc(Oc2ccc(Br)cc2)nc1)C1CCCCC1 [2-(4-bromophenoxy)-5-(cyclohexylsulfonyl)pyridine] | exhibiting antiviral activity
CC(=O)c1ccc(Oc2ccc(S(C)(=O)=O)cn2)cc1 [1-(4-((5-(methylsulfonyl)-2-pyridinyl)oxy)phenyl)ethanone] | exhibiting antiviral activity
CS(=O)(=O)c1ccc(Oc2cccc(Br)c2)nc1 [2-(3-bromophenoxy)-5-(methylsulfonyl)pyridine] | exhibiting antiviral activity
CS(=O)(=O)c1ccc(Oc2ccc(C#N)cc2)nc1 [4-((5-(methylsulfonyl)-2-pyridinyl)oxy)benzonitrile] | exhibiting antiviral activity
O=S(=O)(c1ccccc1)c1ccc(Oc2ccc(Br)cc2)nc1 [2-(4-bromophenoxy)-5-(phenylsulfonyl)pyridine] | exhibiting antiviral activity
CCCCCCS(=O)(=O)c1ccc(Oc2ccc(C(=O)c3ccccc3)cc2)nc1 [(4-((5-(n-hexylsulfonyl)-2-pyridinyl)oxy)phenyl)phenylmethanone] | exhibiting antiviral activity
O=S(=O)(Cc1ccccc1)c1ccc(Oc2ccc(Br)cc2)nc1 [2-(4-bromophenoxy)-5-((phenylmethyl)sulfonyl)pyridine] | exhibiting antiviral activity
CS(=O)(=O)c1ccc(Oc2ccc(Cl)cc2)nc1 [2-(4-chlorophenoxy)-5-(methylsulfonyl)pyridine] | exhibiting antiviral activity
O=C(c1ccccc1)c1ccc(Oc2ccc(S(=O)(=O)C3CCCCC3)cn2)cc1 [(4-((5-(cyclohexylsulfonyl)-2-pyridinyl)oxy)phenyl)phenylmethanone] | exhibiting antiviral activity
CSc1ccc(Oc2ccc(S(C)(=O)=O)cn2)cc1 [2-(4-(methylthio)phenoxy)-5-(methylsulfonyl)pyridine] | exhibiting antiviral activity
CS(=O)(=O)c1cccnc1Oc1ccc(C(=O)c2ccccc2)cc1 [(4-((3-(methylsulfonyl)-2-pyridinyl)oxy)phenyl)phenylmethanone] | exhibiting antiviral activity
CC(C)S(=O)(=O)c1ccc(Oc2ccc(Br)cc2)nc1 [2-(4-bromophenoxy)-5-((1-methylethyl)sulfonyl)pyridine] | exhibiting antiviral activity
CC(C)S(=O)(=O)c1ccc(Oc2ccc(C(=O)c3ccccc3)cc2)nc1 [(4-((5-((1-methylethyl)sulfonyl)-2-pyridinyl)oxy)phenyl)phenylmethanone] | exhibiting antiviral activity
CC(=O)c1ccc(Oc2ccc(S(=O)(=O)C(C)C)cn2)cc1 [1-(4-((5-((1-methylethyl)sulfonyl)-2-pyridinyl)oxy)phenyl)ethanone] | exhibiting antiviral activity
CCS(=O)(=O)c1ccc(Oc2ccc(C(=O)c3ccccc3)cc2)nc1 [(4-((5-(ethylsulfonyl)-2-pyidinyl)oxy)phenyl)phenylmethanone] | exhibiting antiviral activity
CCCCCCS(=O)(=O)c1ccc(Oc2ccc(Cl)c(Cl)c2)nc1 [2-(3,4-dichlorophenoxy)-5-(n-hexylsulfonyl)pyridine] | exhibiting antiviral activity
CCS(=O)(=O)c1ccc(Oc2ccc(Cl)cc2)nc1 [2-(4-chlorophenoxy)-5-(ethylsulfonyl)pyridine] | exhibiting antiviral activity
CS(=O)(=O)c1ccc(Oc2ccc(C(=O)c3ccccc3)cc2)nc1 [(4-((5-(methylsulfonyl)-2-pyridinyl)oxy)phenyl)phenylmethanone] | exhibiting antiviral activity
CS(=O)(=O)c1ccc(Oc2ccc(Cl)c(Cl)c2)nc1 [2-(3,4-dichlorophenoxy)-5-(methylsulfonyl)pyridine] | exhibiting antiviral activity
CCS(=O)(=O)c1ccc(Oc2ccc(Oc3ccccc3)cc2)nc1 [5-(ethylsulfonyl)-2-(4-phenoxyphenoxy)pyridine] | exhibiting antiviral activity
CC(C)(C)c1ccc(Oc2ccc(S(C)(=O)=O)cn2)cc1 [2-(4-(1,1-dimethylethyl)phenoxy)-5-(methylsulfonyl)pyridine] | exhibiting antiviral activity
O=S(=O)(c1ccc(Oc2ccc(Cl)c(Cl)c2)nc1)C1CCCCC1 [2-(3,4-dichlorophenoxy)-5-(cyclohexylsulfonyl)pyridine] | exhibiting antiviral activity
CCS(=O)(=O)c1ccc(Oc2ccc(Cl)c(Cl)c2)nc1 [2-(3,4-dichlorophenoxy)-5-(ethylsulfonyl)pyridine] | exhibiting antiviral activity
O=S(=O)(Cc1ccccc1)c1ccc(Oc2ccc(Cl)c(Cl)c2)nc1 [2-(3,4-dichlorophenoxy)-5-((phenylmethyl)sulfonyl)pyridine] | exhibiting antiviral activity
CS(=O)(=O)c1ccc(Oc2ccc(Oc3ccccc3)cc2)nc1 [5-(methylsulfonyl)-2-(4-phenoxyphenoxy)pyridine] | exhibiting antiviral activity
CCS(=O)(=O)c1ccc(Oc2cc(Cl)c(Cl)cc2Cl)nc1 [5-(ethylsulfonyl)-2-(2,4,5-trichlorophenoxy)pyridine] | exhibiting antiviral activity
